9 compounds from patent US8138340B2, “Bicyclononene derivatives” (Actelion Pharmaceuticals Ltd., priority 2004, dated 2012) can be followed below.

The target of this assay is T1, recombinant human renin (Homo sapiens, UniProt P00797).
T1 sequence (P00797 67-406): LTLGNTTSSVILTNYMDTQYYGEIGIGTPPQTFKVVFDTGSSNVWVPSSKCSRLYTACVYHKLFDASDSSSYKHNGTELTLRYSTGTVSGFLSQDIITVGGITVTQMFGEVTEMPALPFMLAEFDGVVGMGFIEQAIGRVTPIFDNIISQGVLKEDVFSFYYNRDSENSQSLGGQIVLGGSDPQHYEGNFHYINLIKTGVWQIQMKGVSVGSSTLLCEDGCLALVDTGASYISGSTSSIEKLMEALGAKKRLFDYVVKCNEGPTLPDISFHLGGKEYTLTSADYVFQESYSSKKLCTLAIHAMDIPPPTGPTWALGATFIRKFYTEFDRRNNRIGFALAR
In words: Primary renin inhibition assay: IC50 in buffer, 384 well MTP (AngI quantified by EIA). It counts as biochemical. As to conditions: human tetradecapeptide substrate, assay buffer pH 7.4, 37° C. for 3 h. The method, then: 1. Enzyme Immuno Assay (EIA) to Estimate AngI Accumulation and Renin Inhibition
1.1 Preparation of AngI-BSA Conjugate
1.3 mg (1 μmol) of AngI [1-10 (Bachem, H-1680)] and 17 mg (0.26 μmol) of BSA (Fluka, 05475) were dissolved in 4 mL of 0.1M phosphate buffer, pH 7.4, after which 2 mL of a 1:100 dilution of glutaraldehyde in H2O (Sigma G-5882) was added dropwise. The mixture was incubated overnight at 4° C., then dialyzed against 2 liters of 0.9% NaCl, twice for 4 h at rt, followed by dialysis against 2 liters of PBS 1× overnight at rt. The solution was then filtered with a Syringe filter, 0.45 μm (Nalgene, Cat. No. 194-2545). The conjugate can be stored in polypropylene tubes in 0.05% sodium azide at 4° C. for at least 12 months.
1.2 Preparation of BSA-AngI Coated MTP
Microtiter plates (MPT384, MaxiSorp™, Nunc) were incubated overnight at 4° C. with 80 μl of AngI (1-10)/BSA conjugate, diluted 1:100'000 in PBS 1× in a teflon beaker (exact dilution dependent on batch of conjugate), emptied, filled with 90 μl of blocking solution [0.5% BSA (Sigma A-2153) in PBS 1×, 0.02% NaN3], and incubated for at least 2 h at rt, or overnight at 4° C. 96 well MTP (MaxiSorp™, Nunc) were coated with […] conjugate and blocked with 250 μl blocking solution as above, except that the blocking solution contained 3% BSA. The plates can be stored in blocking solution at 4° C. for 1 month.
1.3 AngI-EIA in 384 well MTP
The AngI (1-10)/BSA coated MTP were washed 3 times with wash buffer (PBS 1×, 0.01% Tween 20) and filled with 75 μl of primary antibody solution (anti-AngI antiserum, pre-diluted 1:10 in horse serum), diluted to a final concentration of 1:100'000 in assay buffer (PBS 1×, 1 mM EDTA, 0.1% BSA, pH 7.4). 5 μl of the renin reaction (or standards in assay buffer) (see below) were added to the primary antibody solution and the plates were incubated overnight at 4° C. After the incubation the plates were washed 3 times with wash buffer and incubated with secondary antibody [anti-rabbit IgG, linked to horseradish peroxidase (Amersham Bioscience, NA 934V), diluted 1:2'000 in wash buffer] for 2 h at rt. The plates were washed 3 times with wash buffer and then incubated for 1 h at rt with substrate solution [1.89 mM ABTS (2.2′-azino-di-(3-ethyl-benzthiazolinsulfonate)] (Roche Diagnostics, 102 946) and 2.36 mM H2O2 [30%, (Fluka, 95300] in substrate buffer (0.1M sodium acetate, 0.05M sodium dihydrogen phosphate, pH 4.2). The OD of the plate was read at 405 nm in a microplate reader (FLUOStar Optima from BMG). The production of AngI during the renin reaction was quantified by comparing the OD of the sample with the OD of a standard curve of AngI(1-10), measured in parallel.
2. Primary Renin Inhibition Assay: IC50 in Buffer, 384 well MTP
The renin assay was adapted from an assay described before (Fischli W. et al., Hypertension, 1991, 18:22-31) and consists of two steps: in the first step, recombinant human renin is incubated with its substrate (commercial human tetradecapeptide renin substrate) to create the product Angiotensin I (AngI). In the second step, the accumulated AngI is measured by an immunological assay (enzyme immuno assay, EIA). The detailed description of this assay is found below. The EIA is very sensitive and well suited for renin activity measurements in buffer or in plasma. Due to the low concentration of renin used in this assay (2 fmol per assay tube or 10 pM) it is possible to measure inhibitor affinities in this primary assay down to low pM concentration.
Recombinant human renin (3 pg/μl) in assay buffer (PBS 1×, 1 mM EDTA, 0.1% BSA, pH 7.4), human tetradecapeptide (1-14) substrate (Bachem, M-1120) [5 μM in 10 mM HCl], hydroxyquinoline sulfate (Fluka, 55100) [30 mM in H2O] and assay buffer were premixed at 4° C. at a ratio of 100:30:10:145. 47.5 μl per well of this premix was transferred into polypropylene plates (MTP384, Nunc). […]
One may read the IC50 as the concentration that inhibits the measured activity by half. On to `O=C(C1=C(c2nc(CCCOc3cc(C(F)(F)F)ccc3Cl)cs2)C[C@@H]2CNC[C@H]1N2)N(Cc1cccc(Cl)c1Cl)C1CC1` (racemic) [Example 2, (rac.)-(1R*, 5S*)-7-{4-[3-(2-Chloro-5-trifluoromethylphenoxy)propyl]thiazol-2-yl}-3,9-diazabicyclo[3.3.1]non-6-ene-6-carboxylic acid cyclopropyl-(2,3-dichlorobenzyl)amide], for which the concentration for half-maximal inhibition (IC50) is 94 nM.

Consider `COc1cccc(CN(C(=O)C2=C(c3cnc(CCCOc4c(Cl)cc(C)cc4Cl)s3)C[C@@H]3CNC[C@H]2N3)C2CC2)c1C` (racemic) [Example 21, (rac.)-(1R*, 5S*)-7-{2-[3-(2,6-Dichloro-4-methylphenoxy)propyl]thiazol-5-yl}-3,9-diazabicyclo[3.3.1]non-6-ene-6-carboxylic acid cyclopropyl-(3-methoxy-2-methylbenzyl)amide], for which the half-inhibitory concentration (IC50) came to 4.4 nM.

As to `Cc1cc(Cl)c(OCCOc2ncc(C3=C(C(=O)N(Cc4cccc(Cl)c4C)C4CC4)[C@H]4CNC[C@@H](C3)N4)s2)c(Cl)c1` (racemic) [Example 52, (rac.)-(1R*, 5S*)-7-{2-[2-(2,6-Dichloro-4-methylphenoxy)ethoxy]thiazol-5-yl}-3,9-diazabicyclo[3.3.1]non-6-ene-6-carboxylic acid (3-chloro-2-methylbenzyl)cyclopropyl-amide], the half-inhibitory concentration (IC50) came to 1.1 nM.

With `COc1cccc(CN(C(=O)C2=C(c3cnc(OCCOc4c(Cl)cc(C)cc4Cl)s3)C[C@@H]3CNC[C@H]2N3)C2CC2)c1C` (racemic) [Example 35, (rac.)-(1R*, 5S*)-7-{2-[2-(2,6-Dichloro-4-methylphenoxy)ethoxy]thiazol-5-yl}-3,9-diazabicyclo[3.3.1]non-6-ene-6-carboxylic acid cyclopropyl-(3-methoxy-2-methylbenzyl)amide], the IC50 was 1.3 nM.

As for `Cc1cc(Cl)c(OCCOc2ncc(C3=C(C(=O)N(Cc4cccc(F)c4F)C4CC4)[C@H]4CNC[C@@H](C3)N4)s2)c(Cl)c1` (racemic) [Example 45, (rac.)-(1R*, 5S*)-7-{2-[2-(2,6-Dichloro-4-methylphenoxy)ethoxy]thiazol-5-yl}-3,9-diazabicyclo[3.3.1]non-6-ene-6-carboxylic acid cyclopropyl-(2,3-difluorobenzyl)amide], the IC50 was determined as 15 nM.

With `Cc1ccc(F)c(OCCCc2coc(C3=C(C(=O)N(Cc4cccc(Cl)c4Cl)C4CC4)[C@H]4CNC[C@@H](C3)N4)n2)c1Cl` (racemic) [Example 12, (rac.)-(1R*, 5S*)-7-{4-[3-(2-Chloro-6-fluoro-3-methylphenoxy)propyl]oxazol-2-yl}-3,9-diazabicyclo[3.3.1]non-6-ene-6-carboxylic acid cyclopropyl-(2,3-dichlorobenzyl)-amide], the IC50 was determined as 46 nM.

In the case of “(rac.)-(1R*, 5S*)-7-{4-[3-(3-Chloro-2,6-difluorophenoxy)propyl]thiazol-2-yl}-3,9-diazabicyclo[3.3.1]non-6-ene-6-carboxylic acid cyclopropyl-(2,3-dichloro-benzyl)amide [Example 3]”, the IC50 came out at 16 nM.

As for `Cc1ccc(F)c(OCCOc2ncc(C3=C(C(=O)N(Cc4cccc(Cl)c4Cl)C4CC4)[C@H]4CNC[C@@H](C3)N4)s2)c1Cl` (racemic) [Example 7, (rac.)-(1R*, 5S*)-7-{2-[2-(2-Chloro-6-fluoro-3-methylphenoxy)ethoxy]thiazol-5-yl}-3,9-diazabicyclo[3.3.1]non-6-ene-6-carboxylic acid cyclopropyl-(2,3-dichlorobenzyl)-amide], the IC50 stood at 2.9 nM.

In the case of “(rac.)-(1R*, 5S*)-7-{5-[2-(4-Chloro-3,5-dimethylphenoxy)ethyl]-4-methylthiazol-2-yl}-3,9-diazabicyclo[3.3.1]non-6-ene-6-carboxylic acid cyclopropyl-(3-methoxy-2-methylbenzyl)amide [Example 1]”, the IC50 stood at 57 nM.
